Like-named read-outs stand apart in the source and are kept apart here.
How the values were obtained:
[1] = biological target: T1, S-nitrosoglutathione reductase (GSNOR) (Homo sapiens, UniProt P11766); experiment: GSNOR assay (inhibition of GSNOR activity, NADH absorbance at 340 nm); assay type: biochemical
T1 construct: made in house; host or cells: E. coli
Summary of the method: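 Recombinant GSNOR purified from E. coli, tag removed. Final conditions: 100 mM NaPO4 pH 7.4, 0.240 mM GSNO, 0.300 mM NADH, 0.5 μg/mL enzyme, 1% DMSO; NADH loss followed as 340 nm absorbance change over 3 min at 25 °C. Compounds 100–0.003 μM, triplicate; IC50 by curve analysis.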

[2] = system: cigarette smoke-induced COPD; experiment: Acute (4 day) cigarette smoke exposure COPD model; assay type: in vivo, mouse; settings: acute 4 day smoke model
Experimental: The efficacy of GSNOR inhibitors was assessed in a mouse model of chronic obstructive pulmonary disease (COPD) induced by short duration (4 days or 11 days) of exposure to cigarette smoke. Infiltration of inflammatory cells into the bronchoalveolar lavage fluid (BALF) and BALF levels of chemokines involved in inflammation and tissue turnover/repair were measured to assess the influences of GSNOR inhibitors on some of the early events associated with the initiation and progression of COPD.
Efficacy of GSNOR inhibitors against COPD was explored using acute (4 day) and subchronic (11 day) models of cigarette smoke-induced COPD in mice. […] In animal models, changes in lung pathology are only evident after extended (several months) duration of exposure to cigarette smoke, thus making chronic models prohibitive as effective screening tools. More recently, models exploring inflammatory responses after short duration (2 weeks or less) of smoke exposure in mice have been utilized as tools for screening efficacy and mechanisms of action of novel therapeutics against COPD. The key roles of inflammation in the initiation and progression of COPD, make these short duration models relevant for initial tests of efficacy of novel therapeutics.
Female C57Bl/6 mice (N=8 per group) were exposed to cigarette smoke using a whole body exposure chamber. Mice were exposed daily for 4 consecutive days to 4 cycles of smoke from 6 sequential cigarettes (Kentucky 3R4F without filter) with a 30 minute smoke free interval between cycles. GSNOR inhibitors were administered daily via oral dosing at 10 mg/kg/day for 7 days starting 2 days prior to smoke exposure and continuing 1 day post-exposure. The effects of GSNOR inhibitors were assessed by quantitating the numbers of total cells, leukocytes, and leukocytes differentials in the BALF via light microscopy and the levels of BALF chemokines via ELISA at approximately 24 h after the last smoke exposure. The effect of GSNOR inhibitors were compared to vehicle treated controls. The PDE4 inhibitor, roflumilast, was used as the positive control for the study. A group of naïve mice (N=8) was exposed to air and used as a negative control for the study.

[3] = system: dextran sodium sulfate (DSS)-induced IBD; experiment: Acute prophylactic model of DSS-induced IBD; assay type: in vivo, mouse
Text: Acute and chronic models of dextran sodium sulfate (DSS)-induced IBD in mice were used to explore efficacy of GSNORi against this disease. Acute and chronic DSS-induced IBD are widely used and well characterized models that induce pathological changes in the colon similar to those observed in the human disease. In these models and in human disease, epithelial cells within the crypts of the colon are disrupted, leading to dysfunction of the epithelial barrier and the ensuing tissue inflammation, edema, and ulceration. GSNORi therapy may benefit IBD by restoring s-nitrosoglutathione (GSNO) levels, and thus prevent or reverse the epithelial barrier dysfunction. Experimental IBD was induced by administration of DSS in the drinking water of male C57Bl/6 mice (N=8 to 10 mice per group) for 6 consecutive days. GSNORi was dosed orally at doses of 0.1 to 10 mg/kg/day for 10 days starting two days prior to and continuing two days post DSS exposure. […] Levels of circulating cytokines involved in inflammatory pathways were also assessed. The effect of GSNORi was compared to vehicle treated controls. […] Naïve mice (N=5) were also assessed as a normal tissue control.

[4] = biological target: T2, GSNOR and NAD+ (Homo sapiens, UniProt P11766); experiment: X-ray crystallography of inhibitor bound to GSNOR and NAD+, distance measurement; settings: crystal structure bound to GSNOR and NAD+; O atom of hydroxyl to C atom of carbonyl
T2 construct: made in house; host or cells: E. coli
Text: Single crystal x-ray diffraction is a method useful to understanding the 3-dimensional structure of the binding pocket. The solved crystal structures offer significant information about the GSNOR binding pocket and the interactions of the inhibitors within the binding site. The crystal structure of the ternary complex of GSNOR, NAD+, and Compound IV-10 (Table 4, Example 1) (4-(7-hydroxy-4-oxo-2-(trifluoromethyl)-4H-chromen-3-yl)benzoic acid) was solved. The enzyme-ligand complex crystallized as a homodimer with Compound IV-10 binding to each GSNOR monomer. The key pharmacophores identified from the ternary complex of GSNOR inhibitor with GSNOR and NAD+ are the hydroxyl group on the bicyclic ring of Compound IV-10, which hydrogen bonds to histidine 66, cysteine 44, cysteine 173 and threonine 46. This hydroxyl group is also part of the Zn complex to histidine 66, cysteine 44, and cysteine 173 and threonine 46. The carboxylic acid of Compound IV-10 hydrogen bonds to the glutamine 111 and forms a salt bridge with lysine 283. […]
Once the crystal structures were solved, a distance measurement was made. […] For the second crystal structure with Compound V-1 bound to GSNOR and NAD+, the distance between the hydroxyl group and the carboxylic acid found to be 12.34 Å (measured in the same manner as described above). […]

[5] = Mouse pharmacokinetic (PK) study; assay type: in vivo; settings: male, BALB/c, plasma, po, 10 mg/kg, male BALB/c mice, 2 mg/kg IV, 10 mg/kg PO, read-out: oral bioavailability (% F)
Text: The mouse was used to determine the pharmacokinetics of compounds of the invention. This species is widely used to assess the bioavailability of compounds by administering both oral (PO) and intravenous (IV) test articles. Efficacy of the compounds of the invention was compared by assessing plasma exposure in male BALB/c mice either via IV or PO administration at the times of peak activity.
Compounds of the invention were reconstituted in a phosphate buffered saline (PBS)/10% Solutol (HS 15) clear solution resulting in a concentration of 0.2 mg/mL and administered to mice (2 mg/kg) as a single IV dose. Animals were dosed via the lateral tail vein. Blood samples were collected at designated time points (0.083, 0.25, 0.5, 1, 2, 4, 8, 16, 24 hours) by cardiac puncture under isoflurane anesthesia (up to 1 mL blood per animal). The blood was collected into tubes containing Li-Heparin. The blood samples were kept on ice until centrifugation within approximately 30 minutes of collection. The plasma was transferred into labeled polypropylene tubes and frozen at −70° C. until analyzed by LC/MS/MS.
The compounds of the invention were reconstituted in 40% Propylene Glycol/40% Propylene Carbonate/20% of a 5% Sucrose clear solution resulting in a concentration of 2 mg/mL and administered to mice (10 mg/kg) as a single oral dose via gavage. Blood samples were collected at 0.25, 0.5, 1, 2, 4, 8, 12, 16, 20 and 24 hours post dose by cardiac puncture under isoflurane anesthesia. The blood was collected in tubes containing Li-Heparin. The blood samples were kept on ice until centrifugation within approximately 30 minutes of collection. The plasma was transferred into labeled polypropylene tubes and frozen at −70° C. until analyzed by LC/MS/MS.
Plasma samples at each timepoint were analyzed using a LC-MS/MS with a lower limit of quantification (LLOQ) of 1 ng/mL. Plasma was analyzed to determine the amount of the compound of the invention in each sample and regression curves generated for each compounds of the invention in the relevant matrixes.
WinNonlin analysis was used for calculating PK parameters for both the IV and PO administrations:
PK parameters for IV portion—AUClast; AUCINF; T1/2; Cl; Vss; Cmax; MRT
PK parameters for PO portion—AUClast; AUCINF; T1/2; Cmax; Cl, MRT.
In addition to the above PK parameters, bioavailability (% F) was calculated.

[6] = GSNOR inhibitor activity, Tables 1-6, read-out: IC50 range

T1 sequence (P11766 whole entry): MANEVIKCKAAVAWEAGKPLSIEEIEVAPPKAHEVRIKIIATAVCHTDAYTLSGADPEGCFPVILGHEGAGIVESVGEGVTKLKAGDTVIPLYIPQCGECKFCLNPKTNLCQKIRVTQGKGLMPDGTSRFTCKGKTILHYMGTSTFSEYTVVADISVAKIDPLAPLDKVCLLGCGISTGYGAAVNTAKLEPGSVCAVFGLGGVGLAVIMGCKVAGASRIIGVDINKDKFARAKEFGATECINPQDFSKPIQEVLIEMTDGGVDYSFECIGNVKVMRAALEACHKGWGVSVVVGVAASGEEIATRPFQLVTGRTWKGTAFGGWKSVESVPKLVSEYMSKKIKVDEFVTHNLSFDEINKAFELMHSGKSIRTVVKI
T2 sequence (P11766 whole entry): as above

Compound	IC50 [1, 6] [nM]	effects compared with roflumilast [2]	BALF chemokines ([2]; oral 10 mg/kg/day for 7 days)	circulating inflammatory cytokines ([3]; oral 0.1, 1, or 10 mg/kg/day for 10 days)	effects compared with prednisolone ([3]; prednisolone 3 mg/kg/day oral)	IC50 [1] [nM]	distance between the hydroxyl group and the carboxylic acid [4] [Å]	bioavailability [5] [%]
O=C(O)c1ccc(-c2ccc3cc(O)ccc3n2)cc1 [Compound I-3]	< 100	comparable to or greater than those observed for roflumilast	restored BALF chemokines towards levels observed in naïve mice	restored circulating inflammatory cytokines towards levels observed in untreated naïve mice	comparable to or greater than those observed for prednisolone	–	–	–
O=C(O)c1ccc(Oc2c(C(F)(F)F)oc3cc(O)ccc3c2=O)cc1 [Compound V-1, 4-(7-hydroxy-4-oxo-2-(trifluoromethyl)-4H-chromen-3-yloxy)benzoic acid]	–	–	–	–	–	100 to 1000	12.34	–
O=C(O)c1ccc(-c2c(C(F)(F)F)oc3cc(O)ccc3c2=O)cc1 [IV-10, 4-(7-hydroxy-4-oxo-2-(trifluoromethyl)-4H-chromen-3-yl)benzoic acid]	< 100	–	–	–	–	–	12.07	> 9

Source: patent US20140094465A1, “Compounds as S-Nitrosoglutathione Reductase Inhibitors” (N30 PHARMACEUTICALS, INC., priority 2011, published 2014)
